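1) Cells in 96-well plates. 2) Compound, 48 h, 5 concentrations. 3) Linear interpolation between surrounding doses. 4) Unreached endpoint = highest concentration. Here, GI50 denotes the concentration required for 50% inhibition of growth.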 The source made the active and inactive calls. Rule as the data show it: active = GI50 up to about 1.1 µM and inactive = higher.
Legend:
Experiment in all cases: DTP human tumour cell line panel, 48 h
COLO 205 = system: COLO 205
NCI-H23 = system: NCI-H23
NCI-H460 = system: NCI-H460
PC-3 = system: PC-3
CAKI-1 = system: CAKI-1
OVCAR-3 = system: OVCAR-3
A549 = system: A549
SK-MEL-2 = system: SK-MEL-2
NCI/ADR-RES = system: NCI/ADR-RES
HCC 2998 = system: HCC 2998
HL-60 = system: HL-60
ACHN = system: ACHN
HOP-62 = system: HOP-62
OVCAR-5 = system: OVCAR-5
SF-539 = system: SF-539
RXF 393 = system: RXF 393
MDA-MB-435 = system: MDA-MB-435
NCI-H522 = system: NCI-H522
KM12 = system: KM12
SF-268 = system: SF-268
SK-OV-3 = system: SK-OV-3
UACC-257 = system: UACC-257
UACC-62 = system: UACC-62
SF-295 = system: SF-295
A498 = system: A498
DU-145 = system: DU-145
IGROV-1 = system: IGROV-1
MDA-MB-231 = system: MDA-MB-231
EKVX = system: EKVX
HT-29 = system: HT-29
T47D = system: T47D
RPMI-8226 = system: RPMI-8226
BT-549 = system: BT-549
TK-10 = system: TK-10
SK-MEL-5 = system: SK-MEL-5
Malme-3M = system: Malme-3M
SNB-19 = system: SNB-19
SK-MEL-28 = system: SK-MEL-28
SR = system: SR
K562 = system: K562
Hs-578T = system: Hs-578T
HCT-15 = system: HCT-15
HCT-116 = system: HCT-116
U-251 = system: U-251
LOX IMVI = system: LOX IMVI
SN12C = system: SN12C
MCF7 = system: MCF7
UO-31 = system: UO-31
M14 = system: M14
MOLT-4 = system: MOLT-4
CCRF-CEM = system: CCRF-CEM
MDA-N = system: MDA-N
OVCAR-4 = system: OVCAR-4
OVCAR-8 = system: OVCAR-8
786-0 = system: 786-0
SW-620 = system: SW-620
SNB-75 = system: SNB-75
HOP-92 = system: HOP-92
NCI-H226 = system: NCI-H226

Question: How did the GI50 (COLO 205) turn out when `NC(=O)/C=c1/c2ccccc2n2nc3ccccc3c12` was run?
Answer: 20.4 µM (inactive)

Question: And the GI50 (NCI-H23)?
Answer: 22.1 µM (inactive)

Question: And the GI50 (NCI-H460)?
Answer: 25.8 µM (inactive)

Question: And the GI50 (PC-3)?
Answer: 11 µM (inactive)

Question: And the GI50 (CAKI-1)?
Answer: 20.1 µM (inactive)

Question: And the GI50 (OVCAR-3)?
Answer: 15.7 µM (inactive)

Question: What about the GI50 (A549) of the same compound?
Answer: 31.7 µM (inactive)

Question: And the GI50 (SK-MEL-2)?
Answer: 15.6 µM (inactive)

Question: What about the GI50 (NCI/ADR-RES) of the same compound?
Answer: 16.1 µM (inactive)

Question: And the GI50 (HCC 2998)?
Answer: 17 µM (inactive)

Question: And the GI50 (HL-60)?
Answer: 3.91 µM (inactive)

Question: And the GI50 (ACHN)?
Answer: 13.6 µM (inactive)

Question: What about the GI50 (HOP-62) of the same compound?
Answer: 26.1 µM (inactive)

Question: And the GI50 (OVCAR-5)?
Answer: 29.9 µM (inactive)

Question: And the GI50 (SF-539)?
Answer: 13.3 µM (inactive)

Question: And the GI50 (RXF 393)?
Answer: 17.1 µM (inactive)

Question: What about the GI50 (MDA-MB-435) of the same compound?
Answer: 16 µM (inactive)

Question: And the GI50 (NCI-H522)?
Answer: 14.1 µM (inactive)

Question: What about the GI50 (KM12) of the same compound?
Answer: 14.3 µM (inactive)

Question: What about the GI50 (SF-268) of the same compound?
Answer: 10.2 µM (inactive)

Question: What about the GI50 (SK-OV-3) of the same compound?
Answer: 16.3 µM (inactive)

Question: What about the GI50 (UACC-257) of the same compound?
Answer: 20.3 µM (inactive)

Question: What about the GI50 (UACC-62) of the same compound?
Answer: 19.4 µM (inactive)

Question: What about the GI50 (SF-295) of the same compound?
Answer: 31.1 µM (inactive)

Question: What about the GI50 (A498) of the same compound?
Answer: 32.1 µM (inactive)

Question: What about the GI50 (DU-145) of the same compound?
Answer: 37.8 µM (inactive)

Question: And the GI50 (IGROV-1)?
Answer: 10.6 µM (inactive)

Question: What about the GI50 (MDA-MB-231) of the same compound?
Answer: 2.76 µM (inactive)

Question: And the GI50 (EKVX)?
Answer: 14.4 µM (inactive)

Question: What about the GI50 (HT-29) of the same compound?
Answer: 15.9 µM (inactive)

Question: And the GI50 (T47D)?
Answer: 7.01 µM (inactive)

Question: What about the GI50 (RPMI-8226) of the same compound?
Answer: 4.98 µM (inactive)

Question: And the GI50 (BT-549)?
Answer: 29.9 µM (inactive)

Question: What about the GI50 (TK-10) of the same compound?
Answer: 23.3 µM (inactive)

Question: What about the GI50 (SK-MEL-5) of the same compound?
Answer: 35.6 µM (inactive)

Question: What about the GI50 (Malme-3M) of the same compound?
Answer: 21.9 µM (inactive)

Question: What about the GI50 (SNB-19) of the same compound?
Answer: 20.1 µM (inactive)

Question: What about the GI50 (SK-MEL-28) of the same compound?
Answer: 16.8 µM (inactive)

Question: What about the GI50 (SR) of the same compound?
Answer: 2.68 µM (inactive)

Question: And the GI50 (K562)?
Answer: 15.3 µM (inactive)

Question: What about the GI50 (Hs-578T) of the same compound?
Answer: 31.2 µM (inactive)

Question: And the GI50 (HCT-15)?
Answer: 12.2 µM

Question: And the GI50 (HCT-116)?
Answer: 4.82 µM (inactive)

Question: And the GI50 (U-251)?
Answer: 12.9 µM (inactive)

Question: What about the GI50 (LOX IMVI) of the same compound?
Answer: 4.78 µM (inactive)

Question: And the GI50 (SN12C)?
Answer: 19.1 µM (inactive)

Question: What about the GI50 (MCF7) of the same compound?
Answer: 26.9 µM (inactive)

Question: And the GI50 (UO-31)?
Answer: 19.2 µM (inactive)

Question: And the GI50 (M14)?
Answer: 27.5 µM (inactive)

Question: And the GI50 (MOLT-4)?
Answer: 2.69 µM (inactive)

Question: What about the GI50 (CCRF-CEM) of the same compound?
Answer: 3.56 µM (inactive)

Question: And the GI50 (MDA-N)?
Answer: 15.6 µM (inactive)

Question: What about the GI50 (OVCAR-4) of the same compound?
Answer: 10.3 µM (inactive)

Question: And the GI50 (OVCAR-8)?
Answer: 8.71 µM (inactive)

Question: And the GI50 (786-0)?
Answer: 8.67 µM (inactive)

Question: And the GI50 (SW-620)?
Answer: 17.5 µM (inactive)

Question: For `COc1ccc(NC=O)c(C(O)CCNC(C)=O)c1` (stereo unspecified), which GI50 (COLO 205) is on record?
Answer: > 100 µM (inactive)

Question: And the GI50 (NCI-H23)?
Answer: > 100 µM (inactive)

Question: What about the GI50 (NCI-H460) of the same compound?
Answer: > 100 µM (inactive)

Question: What about the GI50 (PC-3) of the same compound?
Answer: > 100 µM (inactive)

Question: And the GI50 (CAKI-1)?
Answer: > 100 µM (inactive)

Question: And the GI50 (OVCAR-3)?
Answer: > 100 µM (inactive)

Question: What about the GI50 (A549) of the same compound?
Answer: > 100 µM (inactive)

Question: And the GI50 (SK-MEL-2)?
Answer: > 100 µM (inactive)

Question: And the GI50 (NCI/ADR-RES)?
Answer: > 100 µM (inactive)

Question: And the GI50 (HL-60)?
Answer: > 100 µM (inactive)

Question: And the GI50 (ACHN)?
Answer: > 100 µM (inactive)

Question: And the GI50 (OVCAR-5)?
Answer: > 100 µM (inactive)

Question: What about the GI50 (SF-539) of the same compound?
Answer: > 100 µM (inactive)

Question: And the GI50 (RXF 393)?
Answer: > 100 µM (inactive)

Question: And the GI50 (MDA-MB-435)?
Answer: > 100 µM (inactive)

Question: And the GI50 (SNB-75)?
Answer: > 100 µM (inactive)

Question: And the GI50 (NCI-H522)?
Answer: > 100 µM (inactive)

Question: And the GI50 (KM12)?
Answer: > 100 µM (inactive)

Question: And the GI50 (SF-268)?
Answer: > 100 µM (inactive)

Question: And the GI50 (SK-OV-3)?
Answer: > 100 µM (inactive)

Question: And the GI50 (UACC-257)?
Answer: > 100 µM (inactive)

Question: And the GI50 (HOP-92)?
Answer: > 100 µM (inactive)

Question: And the GI50 (UACC-62)?
Answer: > 100 µM (inactive)

Question: And the GI50 (SF-295)?
Answer: > 100 µM (inactive)

Question: What about the GI50 (A498) of the same compound?
Answer: > 100 µM (inactive)

Question: And the GI50 (DU-145)?
Answer: > 100 µM (inactive)

Question: What about the GI50 (IGROV-1) of the same compound?
Answer: > 100 µM (inactive)

Question: And the GI50 (MDA-MB-231)?
Answer: > 100 µM (inactive)

Question: What about the GI50 (EKVX) of the same compound?
Answer: > 100 µM (inactive)

Question: And the GI50 (HT-29)?
Answer: > 100 µM (inactive)

Question: And the GI50 (T47D)?
Answer: > 100 µM (inactive)

Question: And the GI50 (RPMI-8226)?
Answer: > 100 µM (inactive)

Question: What about the GI50 (BT-549) of the same compound?
Answer: > 100 µM (inactive)

Question: And the GI50 (TK-10)?
Answer: > 100 µM (inactive)

Question: What about the GI50 (SK-MEL-5) of the same compound?
Answer: > 100 µM (inactive)

Question: What about the GI50 (SNB-19) of the same compound?
Answer: > 100 µM (inactive)

Question: What about the GI50 (SR) of the same compound?
Answer: > 100 µM (inactive)

Question: And the GI50 (K562)?
Answer: > 100 µM (inactive)

Question: And the GI50 (Hs-578T)?
Answer: > 100 µM (inactive)

Question: And the GI50 (HCT-15)?
Answer: > 100 µM

Question: What about the GI50 (HCT-116) of the same compound?
Answer: > 100 µM (inactive)

Question: What about the GI50 (U-251) of the same compound?
Answer: > 100 µM (inactive)

Question: What about the GI50 (NCI-H226) of the same compound?
Answer: > 100 µM (inactive)

Question: And the GI50 (LOX IMVI)?
Answer: > 100 µM (inactive)

Question: What about the GI50 (SN12C) of the same compound?
Answer: > 100 µM (inactive)

Question: What about the GI50 (MCF7) of the same compound?
Answer: > 100 µM (inactive)

Question: What about the GI50 (UO-31) of the same compound?
Answer: > 100 µM (inactive)

Question: And the GI50 (M14)?
Answer: > 100 µM (inactive)

Question: And the GI50 (MOLT-4)?
Answer: > 100 µM (inactive)

Question: What about the GI50 (CCRF-CEM) of the same compound?
Answer: > 100 µM (inactive)

Question: And the GI50 (MDA-N)?
Answer: > 100 µM (inactive)

Question: And the GI50 (OVCAR-4)?
Answer: > 100 µM (inactive)

Question: And the GI50 (OVCAR-8)?
Answer: > 100 µM (inactive)

Question: What about the GI50 (786-0) of the same compound?
Answer: > 100 µM (inactive)

Question: What about the GI50 (SW-620) of the same compound?
Answer: > 100 µM (inactive)

Reference: ChEMBL document CHEMBL1201862, “PubChem BioAssay data set” (2004)
